Among the data in PubChem BioAssay (NCI) are GI50 and TGI values, retold here.

Where “and” joins values, the source holds several entries; their conditions need not be identical. Equal entries are not always repeated.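 These data come from cells grown in 96-well plates and exposed to compound for 48 hours at five concentrations. GI50 marks 50% less growth. TGI denotes the concentration required for complete inhibition of growth.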

Holding throughout (assay): NCI-60 cell line screen, 48 h
The subject of test [1] is COLO 205 colon.
Test [2] deals with CCRF-CEM leukemia.
The subject of test [3] is HT29 colon.
Test [4] concerns T-47D breast.
Test [5] has as its system HOP-92 NSCLC.
In test [6] the test system is SK-MEL-2 melanoma.
Test [7] concerns CAKI-1 renal.
The test system of test [8] is MALME-3M melanoma.
Test [9] deals with MDA-MB-435.
Test [10] relates to NCI-H226 lung.

Take `COCO[C@@H]1CC2C=Nc3cc(OCc4ccccc4)c(OC)cc3C(=O)N2C1` (some centres undefined): the GI50 in [1] was 0.181 µM; in test [2], 0.313 µM; in test [3], 0.4 µM; in [4], 0.154 µM; in [5] it was 0.456 µM; in [6], 0.49 µM. For the same compound, the GI50 in test [7] is 0.209 µM; in test [8], 0.37 µM; in test [9], 0.455 µM; in test [10], 2.88 µM. Moreover, the TGI was 0.386 µM in test [1]; 21.6 µM in test [2]; > 100 µM in test [3]; 6.83 µM in test [5]; 2.08 µM in [6]; 0.513 µM in test [7]. Besides, the figures for the TGI in [8], in test [9] and in [10] were 2.79 µM, 1.86 µM and 61.1 µM, respectively.
On to `COc1cc(/C=N/Nc2ncnc3c2cnn3Cc2ccccc2)ccc1O`, for which the GI50 was 10.6 µM in test [1]; > 6.7 µM in test [2]; 14.9 µM in test [3]; 9.57 µM in test [4]; 0.83 µM in [5]; 16.7 µM in test [6]. Moreover, the GI50 is > 19.9 µM in test [7], 7.14 µM in [8], > 23.1 µM in [9] and 10.3 µM in [10]. Moreover, the TGI is > 25 µM in test [1]; > 25 µM in test [2]; > 25 µM in test [3]; > 25 µM in test [4]; 8.86 µM in test [5]; > 25 µM in test [6]. Also, the TGI in test [7], in test [8], in [9] and in [10] was > 25 µM throughout.
With `O=C1C(Cl)=C(Nc2ccccn2)C(=O)c2ccccc21`, the GI50 in test [1] was 3.23 µM; in test [2], 3.79 µM; in test [3], 26.2 µM; in test [4], 3.1 µM; in test [5], 3.17 µM; in test [6] it was 3.05 µM. The GI50 in [7] was 3.82 µM; in test [8] it was 1.81 µM; in test [9], 2.02 µM; in [10] it was 1.92 µM. The TGI in test [1] was determined as 11.4 µM; in [2], 12.5 µM; in test [3] it was 62.5 µM; in [4], 10.2 µM; in [5] it was 9.84 µM; in [6], 6.66 µM. The TGI in test [7] worked out at 18.8 µM; in test [8], 3.65 µM; in test [9] it was 3.96 µM; in test [10], 5.49 µM.
Regarding `CCCCC/C=C\C/C=C/CCCCCCCCNC(=O)Nc1ccc([N+](=O)[O-])cc1`, the GI50 is 15 µM in [1]; 4.59 µM in test [2]; 25.1 µM in [3]; 22.7 µM in [4]; 4.27 µM in test [5]; 32.3 µM in test [6]. Besides, the GI50 in test [7] is 5.9 µM; in test [8], 25.2 µM; in test [9], 8.21 µM; in test [10], 14.8 µM. In addition, the TGI in test [1] was 28.9 µM; in test [2] it was > 100 µM; in [3], > 100 µM; in test [4], > 100 µM; in [5], 35.4 µM; in test [6], > 100 µM. Also, the TGI is > 100 µM in test [7], 84.4 µM in test [8], > 100 µM in [9] and > 100 µM in [10].
On to `CS(=O)(=O)N(CC(=O)O)Cc1ccccc1`, for which the TGI in [1], in test [2], in test [3], in [4], in test [5] and in test [6] was > 100 µM throughout. Also, the TGI in test [7], in test [8], in test [9] and in test [10] was > 100 µM each time.
Turning to `[O]=[W](=[O])([OH])[OH]`, the GI50 in [1], in test [2], in [3], in [4], in test [5] and in test [6] was > 100 µM throughout. In addition, the GI50 in [7], in [8], in test [9] and in test [10] was > 100 µM in each case. Moreover, the TGI in test [1], in test [2], in test [3], in test [4], in test [5] and in test [6] was > 100 µM throughout. Besides, the TGI in [7], in test [8], in [9] and in test [10] was > 100 µM throughout.
Regarding `CN1CCN(CCCN2c3ccccc3Sc3ccc(C(F)(F)F)cc32)CC1`, the GI50 in test [1] is 1.64 µM and 1.8 µM and 3.87 µM; in test [2], 2.35 µM and 2.17 µM and 8.25 µM; in test [3], 1.53 µM; in [4], 1.6 µM; in test [5], 1.07 µM and 2.26 µM and 7.54 µM; in test [6], 2.34 µM. The GI50 in test [7] is 1.55 µM; in test [8], 1.69 µM; in [9], 1.69 µM; in test [10], 2.16 µM. Also, the TGI in test [1] is 3.15 µM and 3.65 µM and 9.3 µM; in [2] it was 6 µM and 6.52 µM and 26.5 µM; in test [3] it was 3.06 µM and 7.61 µM and 5.88 µM; in [4], 3.63 µM and 20.2 µM and 23.1 µM; in test [5] it was 4.35 µM and 10.4 µM and 20.5 µM; in test [6] it was 4.26 µM and 15.4 µM and 15.6 µM. Also, the TGI in [7] was 3.36 µM and 22.4 µM and 23 µM; in test [8] it was 3.28 µM and 3.66 µM and 6.98 µM; in [9], 3.29 µM and 9.49 µM and 11.4 µM; in [10], 6.41 µM and 32.8 µM and 32.2 µM.
For the compound `NCC(=O)NC(CO)C(=O)O` (centres undefined), the TGI in test [1], in test [2], in test [3], in [4], in [5] and in test [6] was > 100 µM throughout. The TGI in test [7], in test [8], in [9] and in test [10] was > 100 µM each time.
